The results in this text go back to article PMC4308718 (Nature Communications, 2015).

The target of one data set is T1, AtPHT4;4 (Arabidopsis thaliana, UniProt Q8GX78).
T1 construct: gene PHT4; cDNA from ATG; His-tag and soluble alpha-helix protein (beta) at both ends, beta-pET-28a(+)-beta; E. coli C43(DE3); purified by Ni-NTA; proteoliposomes
T1 sequence (Q8GX78 1-541): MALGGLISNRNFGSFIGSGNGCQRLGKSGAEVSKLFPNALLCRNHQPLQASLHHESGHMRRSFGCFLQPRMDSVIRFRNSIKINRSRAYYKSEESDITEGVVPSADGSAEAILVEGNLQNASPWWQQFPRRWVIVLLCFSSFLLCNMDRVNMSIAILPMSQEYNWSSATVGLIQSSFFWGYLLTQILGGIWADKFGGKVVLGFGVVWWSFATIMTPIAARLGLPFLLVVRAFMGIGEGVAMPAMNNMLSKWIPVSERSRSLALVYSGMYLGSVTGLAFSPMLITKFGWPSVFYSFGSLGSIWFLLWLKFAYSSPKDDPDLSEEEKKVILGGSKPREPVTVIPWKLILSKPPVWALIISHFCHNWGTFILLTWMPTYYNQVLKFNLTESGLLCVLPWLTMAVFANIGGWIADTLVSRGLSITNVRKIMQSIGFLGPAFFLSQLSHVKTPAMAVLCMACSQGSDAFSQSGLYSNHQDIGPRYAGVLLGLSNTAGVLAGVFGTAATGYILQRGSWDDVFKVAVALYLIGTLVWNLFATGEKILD
The data set can be described thus: inhibition of […]-ascorbate uptake into proteoliposomes, […] min. Format: biochemical. Particulars: 1 and 10 μM inhibitor; 100 μM ascorbate; 2 μM valinomycin; pH 7.0; 27 °C.

For a further data set, the target named is T2, AtPHT4;3 (Arabidopsis thaliana, UniProt Q66GI9).
T2 construct: gene ANTR4
T2 sequence (Q66GI9 whole entry): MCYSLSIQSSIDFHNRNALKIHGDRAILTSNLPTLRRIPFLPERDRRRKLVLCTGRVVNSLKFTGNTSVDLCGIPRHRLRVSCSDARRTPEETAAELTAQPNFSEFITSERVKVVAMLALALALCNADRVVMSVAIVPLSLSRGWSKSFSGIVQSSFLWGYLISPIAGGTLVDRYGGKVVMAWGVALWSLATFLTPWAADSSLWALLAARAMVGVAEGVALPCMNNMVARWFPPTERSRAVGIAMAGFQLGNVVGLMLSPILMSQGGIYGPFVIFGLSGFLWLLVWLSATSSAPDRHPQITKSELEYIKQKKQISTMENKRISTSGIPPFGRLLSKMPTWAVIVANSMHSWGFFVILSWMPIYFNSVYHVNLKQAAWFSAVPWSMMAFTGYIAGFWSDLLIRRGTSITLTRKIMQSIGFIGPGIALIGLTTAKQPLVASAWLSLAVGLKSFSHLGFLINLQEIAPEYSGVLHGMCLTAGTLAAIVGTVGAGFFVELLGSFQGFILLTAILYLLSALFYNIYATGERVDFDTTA
Particulars: labelled compound (32P); 100 μM phosphate; 0.1 M sodium acetate; pH 7.0.

The next data set deals with T3, AtPHT4;5 (Arabidopsis thaliana, UniProt Q3E9A0).
T3 construct: gene ANTR6
T3 sequence (Q3E9A0 whole entry): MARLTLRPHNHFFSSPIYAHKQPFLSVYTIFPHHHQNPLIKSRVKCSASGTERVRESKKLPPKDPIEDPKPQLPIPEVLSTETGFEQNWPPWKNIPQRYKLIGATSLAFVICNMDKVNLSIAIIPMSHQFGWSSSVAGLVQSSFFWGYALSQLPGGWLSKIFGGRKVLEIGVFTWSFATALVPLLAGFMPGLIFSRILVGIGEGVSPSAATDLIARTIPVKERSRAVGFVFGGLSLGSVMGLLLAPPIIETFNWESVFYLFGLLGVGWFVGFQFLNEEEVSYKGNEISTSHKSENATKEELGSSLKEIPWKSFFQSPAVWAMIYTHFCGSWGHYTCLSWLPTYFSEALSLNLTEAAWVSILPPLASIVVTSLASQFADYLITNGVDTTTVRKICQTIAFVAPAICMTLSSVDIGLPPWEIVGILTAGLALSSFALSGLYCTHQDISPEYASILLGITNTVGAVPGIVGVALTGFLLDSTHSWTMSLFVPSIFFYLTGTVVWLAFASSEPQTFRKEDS
Particulars: labelled compound (32P); 100 μM phosphate; 0.1 M sodium acetate; pH 7.0.

The next data set has as its target T4, AtPHT4;6 (Arabidopsis thaliana, UniProt Q9FKV1).
T4 construct: gene ANTR5
Particulars: labelled compound (32P); 100 μM phosphate; 0.1 M sodium acetate; pH 7.0.

Substrate in the data set “purified protein”: O=C1O[C@H]([C@@H](O)CO)C(O)=C1O
The data set can be described thus: purified protein. Particulars: labelled compound (14C), valinomycin-induced inside-positive membrane potential, 4 mM KCl, pH 7.0, 27 °C.

T4 sequence (Q9FKV1 whole entry): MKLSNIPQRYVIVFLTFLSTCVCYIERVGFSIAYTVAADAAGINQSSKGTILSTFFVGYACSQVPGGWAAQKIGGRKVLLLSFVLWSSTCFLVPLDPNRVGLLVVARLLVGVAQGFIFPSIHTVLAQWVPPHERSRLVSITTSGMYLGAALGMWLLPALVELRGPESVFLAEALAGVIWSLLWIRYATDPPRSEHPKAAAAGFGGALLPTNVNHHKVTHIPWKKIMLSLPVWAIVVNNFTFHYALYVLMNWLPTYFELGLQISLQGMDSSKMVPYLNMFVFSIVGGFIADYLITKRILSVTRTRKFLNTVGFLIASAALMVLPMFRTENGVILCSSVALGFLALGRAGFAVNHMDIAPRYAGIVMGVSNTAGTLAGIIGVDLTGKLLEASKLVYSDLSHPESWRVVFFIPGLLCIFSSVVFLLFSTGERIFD

In the case of `O=S(=O)(O)c1cc(N=C=S)ccc1/C=C/c1ccc(N=C=S)cc1S(=O)(=O)O` [4,4′-diisothiocyano-2,2′-stilbenedisulphonic acid], at AtPHT4;4, the “inhibition of 14C-ascorbate uptake into proteoliposomes, 1 min” value is listed as “typical inhibitors of mammalian SLC17 family transporters, inhibited ascorbate uptake”.
Regarding `Cc1cc(-c2ccc(/N=N/c3ccc4c(S(=O)(=O)O)cc(S(=O)(=O)O)c(N)c4c3O)c(C)c2)ccc1/N=N/c1ccc2c(S(=O)(=O)O)cc(S(=O)(=O)O)c(N)c2c1O` [Evans blue], the “inhibition of 14C-ascorbate uptake into proteoliposomes, 1 min” value on AtPHT4;4 is “typical inhibitors of mammalian SLC17 family transporters, inhibited ascorbate uptake”.
As to `O=P(O)(O)O` [inorganic phosphate], the “Na+-driven 32P-phosphate uptake into proteoliposomes, 2 min” value on AtPHT4;3, on AtPHT4;5 and on AtPHT4;6 was “Na^+/Pi transport activity was detected in proteoliposomes containing all of these transporters” throughout.

B1: AtPHT4;4 (Arabidopsis thaliana) (protein)
chain: T1 sequence (Q8GX78 1-541)
Turning to B1, in “purified protein”, the Michaelis constant (Km) worked out at 1200 µM.
